Test results published in patent US20240116845A1, “INDENE COMPOUNDS, PHARMACEUTICAL COMPOSITIONS THEREOF, AND THEIR THERAPEUTIC APPLICATIONS” (NucMito Pharmaceuticals Co., Ltd., priority 2021, published 2024).

Experiments:
Assay type in all cases: cell-based
[1] = system: alpha-smooth muscle actin (α-SMA); test: Inhibition of TGF-β induced expression of alpha-smooth muscle actin in CFSC cells (western blot); settings: compound at 10 μM, TGF-β (10 ng/mL), 24 hours
How it was run: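 Read-out is percent decrease in α-SMA western-blot band intensity, β-actin also probed, relative to TGF-β-only cells. CFSC cells were co-treated for 24 h at 37 °C with 10 ng/mL TGF-β and 10 μM compound in serum-free DMEM.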

[2] = system: A431 (epidermoid carcinoma); test: Antiproliferative activity, CCK-8 cell viability; settings: Homo sapiens, A-431, 72 h, read-out: Inhibition of Cancerous Cells, A431; for inhibition at 3.3 µM: compound concentration of 3.3 μM; for inhibition at 10 µM: compound concentration of 10 μM; for inhibition at 30 µM: compound concentration of 30 μM
How it was run: (§1)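 Viability relative to DMSO controls came from CCK-8 absorbance at 450 nm after 72 h exposure at 37°C. Compound concentrations were 3.3, 10 or 30 μM, in DMEM plus 10% FBS. Results are categorised by inhibition level: at least 50%, 30 to under 50%, or under 30%.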

[3] = system: A549 (lung adenocarcinoma); test: Antiproliferative activity, CCK-8 cell viability; settings: Homo sapiens, 72 h, read-out: Inhibition of Cancerous Cells, A549; for inhibition at 3.3 µM: compound concentration of 3.3 μM; for inhibition at 10 µM: compound concentration of 10 μM; for inhibition at 30 µM: compound concentration of 30 μM
[4] = system: B16F10 (malignant melanoma); test: Antiproliferative activity, CCK-8 cell viability; settings: Mus musculus, B16-F10, 72 h, read-out: Inhibition of Cancerous Cells, B16F10; for inhibition at 3.3 µM: compound concentration of 3.3 μM; for inhibition at 10 µM: compound concentration of 10 μM; for inhibition at 30 µM: compound concentration of 30 μM
How it was run: as §1

[5] = system: HeLa (cervical cancer); test: Antiproliferative activity, CCK-8 cell viability; settings: Homo sapiens, 72 h, read-out: Inhibition of Cancerous Cells, HELA; for inhibition at 3.3 µM: compound concentration of 3.3 μM; for inhibition at 10 µM: compound concentration of 10 μM; for inhibition at 30 µM: compound concentration of 30 μM
[6] = system: HepG2 (liver cancer); test: Antiproliferative activity, CCK-8 cell viability; settings: Homo sapiens, 72 h, read-out: Inhibition of Cancerous Cells, HepG2; for inhibition at 3.3 µM: compound concentration of 3.3 μM; for inhibition at 10 µM: compound concentration of 10 μM; for inhibition at 30 µM: compound concentration of 30 μM
How it was run: as §1

[7] = system: MDA-MB-231 (breast cancer); test: Antiproliferative activity, CCK-8 cell viability; settings: Homo sapiens, 72 h, read-out: Inhibition of Cancerous Cells, MDA-MB-231; for inhibition at 3.3 µM: compound concentration of 3.3 μM; for inhibition at 10 µM: compound concentration of 10 μM; for inhibition at 30 µM: compound concentration of 30 μM
How it was run: as §1

[8] = system: SW480 (colon cancer); test: Antiproliferative activity, CCK-8 cell viability; settings: Homo sapiens, 72 h, read-out: Inhibition of Cancerous Cells, SW480; for inhibition at 3.3 µM: compound concentration of 3.3 μM; for inhibition at 10 µM: compound concentration of 10 μM; for inhibition at 30 µM: compound concentration of 30 μM
How it was run: as §1

Structure (SMILES)	inhibition at 10 µM [1]	inhibition at 3.3 µM [2]	inhibition at 10 µM [2]	inhibition at 30 µM [2]	inhibition at 3.3 µM [3]	inhibition at 10 µM [3]	inhibition at 30 µM [3]	inhibition at 3.3 µM [4]	inhibition at 10 µM [4]	inhibition at 30 µM [4]	inhibition at 3.3 µM [5]	inhibition at 10 µM [5]	inhibition at 30 µM [5]	inhibition at 3.3 µM [6]	inhibition at 10 µM [6]	inhibition at 30 µM [6]	inhibition at 3.3 µM [7]	inhibition at 10 µM [7]	inhibition at 30 µM [7]	inhibition at 3.3 µM [8]	other results
O=C(O)CC1=C(Cc2ccccc2)/C(=C/c2ccc(Oc3ccc(F)cc3)cc2)c2ccc(F)cc21 [Compound D9, 2-[(1Z)-5-Fluoro-2-benzyl-1-({4-[4-fluorophenoxy]phenyl}methylidene)-1H-inden-3-yl]acetic acid]	≥ 80%	30 to 50%	≥ 50%	≥ 50%	30 to 50%	≥ 50%	≥ 50%	< 30%	≥ 50%	≥ 50%	30 to 50%	30 to 50%	≥ 50%	< 30%	< 30%	≥ 50%	≥ 50%	≥ 50%	≥ 50%	30 to 50%	inhibition at 10 µM [8]: ≥ 50%; inhibition at 30 µM [8]: ≥ 50%
COc1ccc2c(c1)/C(=C\c1ccc(COc3ccccc3)cc1)C(C)=C2CC(=O)O [Compound A12, (Z)-2-(6-Methoxy-2-methyl-1-(4-(phenoxymethyl)benzylidene)-1H-inden-3-yl)acetic acid]	≥ 80%	< 30%	< 30%	≥ 50%	30 to 50%	≥ 50%	≥ 50%	≥ 50%	≥ 50%	≥ 50%	30 to 50%	≥ 50%	≥ 50%	30 to 50%	30 to 50%	≥ 50%	< 30%	30 to 50%	≥ 50%	≥ 50%	inhibition at 10 µM [8]: ≥ 50%; inhibition at 30 µM [8]: ≥ 50%
COc1ccc(Oc2cccc(/C=C3/C(C)=C(CC(=O)O)c4cc(F)ccc43)c2)cc1 [Compound D22, 2-[(1Z)-5-Fluoro-2-methyl-1-({3-[4-methoxyphenoxy]phenyl}methylidene)-1H-inden-3-yl]acetic acid]	≥ 80%	< 30%	< 30%	≥ 50%	30 to 50%	30 to 50%	≥ 50%	< 30%	≥ 50%	≥ 50%	30 to 50%	≥ 50%	≥ 50%	< 30%	30 to 50%	≥ 50%	≥ 50%	≥ 50%	≥ 50%	< 30%	inhibition at 10 µM [8]: 30 to 50%; inhibition at 30 µM [8]: ≥ 50%
CC1=C(CC(=O)O)c2cc(F)ccc2/C1=C\c1ccc(Oc2ccc(F)cc2)cc1C(F)(F)F [Compound D12, 2-[(1Z)-1-{[2-Trifluoromethyl-4-(4-fluorophenoxy)phenyl]methylidene}-5-fluoro-2-methyl-1H-inden-3-yl]acetic acid]	< 30%	30 to 50%	≥ 50%	≥ 50%	30 to 50%	≥ 50%	≥ 50%	< 30%	≥ 50%	≥ 50%	< 30%	< 30%	< 30%	≥ 50%	≥ 50%	≥ 50%	≥ 50%	≥ 50%	≥ 50%	30 to 50%	inhibition at 10 µM [8]: ≥ 50%; inhibition at 30 µM [8]: ≥ 50%
